Legend:
[1] = molecular target: recombinant human kappa opioid receptor (κ) (Homo sapiens (Human), UniProt P41145); test: κ-opioid receptor radioligand dose displacement binding assay ([3H]-U69,593); details: mean ± SEM, read-out: Binding Affinity Opioid Receptor Ki (nM) [mean ± SEM] κ
Procedure: (§1) Membranes from HEK-293 cells, CHO or U-2 OS cells expressing the recombinant human kappa opioid receptor (κ) were prepared by lysing cells in ice cold hypotonic buffer (2.5 mM MgCl2, 50 mM HEPES, pH 7.4) (10 mL/10 cm dish) followed by homogenization with a tissue grinder/Teflon pestle. Membranes were collected by centrifugation at 30,000×g for 15 min at 4° C. and pellets were resuspended in hypotonic buffer to a final concentration of 1-3 mg/mL. Protein concentrations were determined using the BioRad protein assay reagent with bovine serum albumen as standard. Aliquots of κ receptor membranes were stored at −80° C.
Radioligand dose displacement assays used 0.4 nM [^3H]-U69,593 (GE Healthcare, Piscataway, N.J.; 40 Ci/mmole) with 15 μg membrane protein (recombinant κ opioid receptor expressed in HEK 293 cells; in-house prep) in a final volume of 200 μl binding buffer (5% DMSO, 50 mM Trizma base, pH 7.4). Non-specific binding was determined in the presence of 10 μM unlabeled naloxone or U69,593. All reactions were performed in 96-well polypropylene plates for 1 hour at a temperature of about 25° C. Binding reactions were terminated by rapid filtration onto 96-well Unifilter GF/C filter plates (Perkin Elmer, Shelton, Conn.) presoaked in 0.5% polyethylenimine (Sigma). Harvesting was performed using a 96-well tissue harvester (Perkin Elmer, Shelton, Conn.) followed by five filtration washes with 200 μl ice-cold binding buffer. Filter plates were subsequently dried at 50° C. for 1-2 hours. Fifty μl/well scintillation cocktail (Perkin Elmer, Shelton, Conn.) was added and plates were counted in a Packard Top-Count for 1 min/well.
(§2) The following tables provide results on the efficacy of binding and activity response of exemplified Compounds of the Invention at the μ- and κ-opioid receptors. In TABLE 3, binding affinity of certain Compounds of the Invention to the μ- and κ-opioid receptors was determined as described above. In TABLE 4, activity response of certain Compounds of the Invention to the μ- and κ-opioid receptors was determined as described above for functional assays using HEK-293 cells. In TABLE 5, activity response of certain Compounds of the Invention to the μ- and κ-opioid receptors was determined as described above using U-2 OS cells.

[2] = molecular target: T1, κ opioid receptor (Homo sapiens (Human), UniProt P41145); test: κ-opioid receptor [35S]GTPγS functional assay, U-2 OS cells; assay type: biochemical; details: κ GTP; for EC50: read-out: Activity Response κ EC50 (nM) [mean ± SEM]; for Emax: relative to U69,593, read-out: Activity Response κ Emax (%)
[3] = molecular target: T2, μ-opioid receptors (Homo sapiens (Human), UniProt P35372); test: μ-opioid receptor [35S]GTPγS functional assay, HEK-293 cells; assay type: biochemical; details: μ GTP; for EC50: read-out: Activity Response μ EC50 (nM) [mean ± SEM]; for Emax: relative to DAMGO, read-out: Activity Response μ Emax (%)
[4] = molecular target: T2, μ-opioid receptors; test: μ-opioid receptor [35S]GTPγS functional assay, U-2 OS cells; assay type: biochemical; details: μ GTP; for EC50: read-out: Activity Response μ EC50 (nM) [mean ± SEM]; for Emax: relative to DAMGO, read-out: Activity Response μ Emax (%)
[5] = molecular target: T1, κ opioid receptor; test: κ-opioid receptor [35S]GTPγS functional assay, HEK-293 cells; assay type: biochemical; details: κ GTP; for EC50: read-out: Activity Response κ EC50 (nM) [mean ± SEM]; for Emax: relative to U69,593, read-out: Activity Response κ Emax (%)
Procedure: as §1
Functional [^35S]GTPγS binding assays were conducted as follows. κ opioid receptor membrane solution was prepared by sequentially adding final concentrations of 0.026 μg/μl κ membrane protein (in-house), 10 μg/mL saponin, 3 μM GDP and 0.20 nM [^35S]GTPγS to binding buffer (100 mM NaCl, 10 mM MgCl2, 20 mM HEPES, pH 7.4) on ice. The prepared membrane solution (190 μl/well) was transferred to 96-shallow well polypropylene plates containing 10 μl of 20× concentrated stock solutions of agonist prepared in DMSO. Plates were incubated for 30 min at a temperature of about 25° C. with shaking. Reactions were terminated by rapid filtration onto 96-well Unifilter GF/B filter plates (Perkin Elmer, Shelton, Conn.) using a 96-well tissue harvester (Packard) and followed by three filtration washes with 200 μl ice-cold binding buffer (10 mM NaH2PO4, 10 mM Na2HPO4, pH 7.4). Filter plates were subsequently dried at 50° C. for 2-3 hours. Fifty μl/well scintillation cocktail (Perkin Elmer, Shelton, Conn.) was added and plates were counted in a Packard Top-Count for 1 min/well.
κ GTP EC50 is the concentration of a compound providing 50% of the maximal response for the compound at a κ receptor.
κ GTP Emax (%) is the maximal effect elicited by a compound relative to the effect elicited by U69,593.
as §2, with “In” for “The following tables provide results on the efficacy of binding and activity response of exemplified Compounds of the Invention at the μ- and κ-opioid receptors. In”

[6] = molecular target: T2, μ-opioid receptors; test: μ-opioid receptor radioligand dose-displacement binding assay ([3H]-diprenorphine); details: mean ± SEM, read-out: Binding Affinity Opioid Receptor Ki (nM) [mean ± SEM] μ
Procedure: Radioligand dose-displacement binding assays for μ-opioid receptors used 0.3 nM [^3H]-diprenorphine (Perkin Elmer, Shelton, Conn.), with […] membrane protein/well in a final volume of 500 μl binding buffer (10 mM MgCl2, 1 mM EDTA, 5% DMSO, 50 mM HEPES, pH 7.4). Reactions were carried out in the absence or presence of increasing concentrations of unlabeled naloxone. All reactions were conducted in 96-deep well polypropylene plates for 2 hours at room temperature. Binding reactions were terminated by rapid filtration onto 96-well Unifilter GF/C filter plates (Perkin Elmer, Shelton, Conn.), presoaked in 0.5% polyethylenimine using a 96-well tissue harvester (Perkin Elmer, Shelton, Conn.) followed by performing three filtration washes with 500 μl of ice-cold binding buffer. Filter plates were subsequently dried at 50° C. for 2-3 hours. BetaScint scintillation cocktail (Perkin Elmer, Shelton, Conn.) was added (50 μl/well), and plates were counted using a Packard Top-Count for 1 min/well. The data were analyzed using the one-site competition curve fitting functions in GraphPad PRISM™ v. 3.0 or higher (San Diego, Calif.), or an in-house function for one-site competition curve-fitting.
as §2

Compound	Ki [1]	EC50 [2]	Emax [2]	EC50 [3]	Emax [3]	EC50 [4]	Emax [4]	EC50 [5]	Emax [5]	Ki [6]
CC(C)[C@@H]1C[C@H]2[C@H]3Cc4ccc(O)cc4[C@@]2(CCN3CC2CC2)CC1=O [Compound 73, (4bS,7S,8aR,9R)-11-(cyclopropylmethyl)-3-hydroxy-7-isopropyl-8,8a,9,10-tetrahydro-5H-9,4b-(epiminoethano)phenanthren-6(7H)-one]	0.32 ± 0.11 nM	1.92 ± 0.28 nM	101 ± 3.38%	2.85 ± 0.6 nM	53.2 ± 5.71%	0.84 ± 0.13 nM	28.3 ± 4.06%	6.07 ± 1.92 nM	61 ± 8.62%	1.98 ± 0.44 nM
COc1ccc2c(c1)[C@]13CCN(CC4CC4)[C@H](C2)[C@@H]1C[C@@H](C(C)C)C(=O)C3 [Compound 72, (4bS,7S,8aR,9R)-11-(cyclopropylmethyl)-7-isopropyl-3-methoxy-8,8a,9,10-tetrahydro-5H-9,4b-(epiminoethano)phenanthren-6(7H)-one]	82.9 ± 1.96 nM	303 ± 40.4 nM	102 ± 2.52%	212 ± 48.8 nM	101 ± 5.55%	270 ± 48.2 nM	60 ± 6%	1050 ± 193 nM	69.3 ± 6.77%	476 ± 118 nM
